The subject of experiment [1] is proximal region of the E-cadherin promoter (Cdh1) in SW620inv cells. Description: ChIP assay at proximal E-cadherin promoter, SW620inv cells. It counts as cell-based.
Experiment [2] relates to E-cadherin mRNA in H520 cells. Nature of the experiment: qPCR of E-cadherin specific mRNA, H520 cells. The experiment is classed as cell-based. To be noted: H520, 10 μM, 6 hours post-treatment, relative to DMSO.
Another experiment deals with HEp3 cells. Description: E-cadherin mRNA, protein and histone marks in HEp3 cells. The experiment is classed as cell-based, Human. To be noted: by 6 hours after treatment, compared with Compound 124 treatment. The protocol:
To determine if Compound 13 restores E-cadherin in HEp3 cells, the effect of Compound 13 treatment on E-cadherin mRNA expression was tested. Compound 13 induced an 8-fold increase in E-cadherin mRNA by 6 hours after treatment in the […] compared with Compound 124 treatment (FIG. 15C). Not only E-cadherin specific mRNA, but also E-cadherin protein, was induced by Compound 13 treatment (FIG. 15D).
Avian embryos were treated with Compound 124 (266Y) or Compound 13 (259Y) 24 hours after intravenous injection of GFP-expressing HEp3 cells. The formation of metastatic colonies was monitored visually by a fluorescent stereoscope at 50× magnification. Representative images are shown, scale bar=500 μm (15A). Colony diameter was quantified at 6 days post injection. The data represent a total of 30 embryos from two independent experiments: 12 treated with Compound 124 (266Y) and 18 treated with Compound 13 (259Y). […] Each data point on the scatterplot represents the geometric mean diameter of 6-10 colonies analyzed per embryo (15B). Relative E-cadherin mRNA expression in HEp3 cells following 6 hours treatment with either Compound 124 (266Y) or Compound 13 (259Y) is shown (15C). Western blot showing E-cadherin protein re-expression in HEp3 cells following treatment with DMSO, Compound 124 (266Y), or Compound 13 (259Y) for 24 hours is shown (15D). […]

The test system of experiment [3] is HMEC-1 cells. Description: E-cadherin, VE-cadherin, Vimentin and histone marks in HMEC-1 cells (qPCR, Western blot). To be noted: HMEC-1, 10 μM, by 12 and 24 hours after treatment. It counts as cell-based, human.
The test system of experiment [4] is HMEC-1 cells. Nature of the experiment: WST-1 metabolism (proliferation) assay, HMEC-1 cells. The experiment is classed as cell-based, human. The conditions noted are these: WST-1, 10 μM, 24 h and 48 h. The protocol:
Proliferation, migration, and tubular formation are essential characteristics of endothelial cells for the generation of new blood vessels. […] The lack of effect on cell proliferation is consistent with the lack of effect of compounds of similar class on the proliferation of SW620 and H520 cells (Stoops, S. L., et al. (2011) ACS Chemical Biology 6, 452-465). A scratch wound healing assay was performed on cultured HMEC-1 cells. Confluent monolayers of HMEC-1 cells were disrupted mechanically by scraping them with a sterile pipette tip. Within the observation period of 24 hours, Compound 13 treatment antagonized HMEC-1 monolayer wound healing (FIG. 12).
Referring to FIG. 11, HMEC-1 cells were treated with DMSO or 10 μM Compound 13 (259Y) using 96 wells plate, WST-1 was added (10 μL per well, incubate 37° C. for one hour, read at 450 nm reference 562 nm) at 24 h and 48 h. The blank control was a well with media but NO CELLS+wst-1. Each data point is a biological replicate that is the average of three technical replicates minus the average of three blank wells.

Experiment [5] has as its system E-cadherin expression in H520 cells. Description: E-cadherin expression, in-cell Western (ICW), H520 cells. The experiment is classed as cell-based. To be noted: Homo sapiens, NCI-H520. The protocol:
SW620 and H520 cells (5×10^4/100 μL) were seeded in a 96-well plate prior to treatment. Cells were treated with 10 μM concentration of synthesized compound in quadruplicate for 24 hours in RPMI 1640 supplemented medium and 100 μg/mL penicillin-streptomycin. The cells were then fixed with 100% methanol for 20 minutes at 4° C. The wells were then washed 2 times with PBS, permeabilized in 2% bovine serum albumin (BSA) and 0.2% TritonX-100 in PBS for 30 minutes at room temperature with gentle agitation, and blocked in LI-COR blocking buffer for 30 minutes at room temperature with gentle agitation. The cells were then incubated with the following primary antibodies: anti-E-Cadherin (1:500) and anti-α-Tubulin (1:1000) diluted in blocking buffer (1:1 dilution in PBS) for 2 hours at room temperature with gentle agitation. The cells were washed 4 times in PBS-T for 5 minutes each, and then incubated with the following secondary antibodies conjugated to a fluorescent entity: IRDye 800-conjugated goat anti-rabbit IgG (1:1000) and IRDye-700-conjugated goat anti-mouse IgG (1:2000) in blocking buffer (1:1 dilution in PBS) with gentle agitation for 1 h at room temperature. The cells were washed 4 times in PBS-T for 5 minutes each followed by a single wash with PBS. All liquid was removed from the wells and the plates were visualized and analyzed on the Odyssey IR imaging system (LI-COR Biosciences).
The assay was further optimized in the following manner. The cells were washed 2 times with PBS, fixed in 100% methanol at room temperature for 15 minutes, and again washed 2 times with PBS. The cells were then incubated with the following primary antibodies: anti-E-Cadherin (1:200) and anti-α-Tubulin (1:2000) diluted in ice cold 2% bovine serum albumin (BSA) and 0.2% TritonX-100 in PBS for 1 hour at room temperature with gentle agitation. The cells were washed 2 times in PBS and then incubated with the following secondary antibodies conjugated to a fluorescent entity: Licor 800-conjugated goat anti-rabbit IgG (1:2000) and IRDye-700-conjugated goat anti-mouse IgG (1:2000) in ice cold 2% BSA and 0.2% TritonX-100 in PBS with gentle agitation for 45 minutes at room temperature. The wells were washed 2 times in PBS, dried, and analyzed as previously mentioned.
Changes in expression level of E-cadherin in response to 10 μM compound in H520 cells was determined in a cell-based functional assay as described above, and the data are shown in Table IV. The compound number corresponds to the compound numbers used in Table II.
EC50 of inducement of E-cadherin expression in H520 cells was determined in a cell-based functional assay as described above, and the data are shown in Table VI. The compound number corresponds to the compound numbers used in Table II.

The mark [6] stands for this setting: SW620inv, ChIP, 10 μM vs DMSO (FIG. 7C).

As for `O=C(NCCCNC(=O)c1cccnc1O)c1cc(-c2ccccc2)on1` [Compound 13, N-(3-(2-hydroxynicotinamido)propyl)-5-phenylisoxazole-3-carboxamide], the “Pol II association with the E-cadherin proximal promoter” value in experiment [1] (ChIP (FIG. 8)) worked out at 3.7 fold. In addition, in experiment [1] (setting [6]), the “enriched binding of H3K4me3 at the E-cadherin promoter” value came to 2.1 fold, the “enriched binding of H3K9Ac at the E-cadherin promoter” value was found to be 3.4 fold and the “enriched binding of Pol II at the E-cadherin promoter” value came to 4.6 fold. The “increase of E-cadherin specific mRNA” value in experiment [2] was 20 fold. Also, the “increase in E-cadherin mRNA” value in the experiment on HEp3 cells is 8 fold. In addition, the “induced expression of E-cadherin mRNA species” value in the experiment with HMEC-1 cells [3] is recorded as above 5 ×. Also, in the experiment with HMEC-1 cells [4], the HMEC-1 cell proliferation entry is “no significant effect”. This molecule had a fold induction at 10 µM in experiment [5] (change in expression level of E-cadherin in response to 10 μM compound, 24 hours, H520 cells) of 5.54. Further, the EC50 in experiment [5] (inducement of E-cadherin expression in H520 cells) was determined as 1000 nM.
